Results reported in PMC2213567 (The Journal of General Physiology, 2008).

Biological target: α4β2δ GABAAR (Mus musculus (alpha4); Rattus norvegicus (beta2); Homo sapiens (delta), UniProt P63138+Q9D6F4)
Test: ultrafast agonist application, outside-out macropatch
Type: cell-based

Sequence of α4β2δ GABAAR (Q9D6F4 36-552): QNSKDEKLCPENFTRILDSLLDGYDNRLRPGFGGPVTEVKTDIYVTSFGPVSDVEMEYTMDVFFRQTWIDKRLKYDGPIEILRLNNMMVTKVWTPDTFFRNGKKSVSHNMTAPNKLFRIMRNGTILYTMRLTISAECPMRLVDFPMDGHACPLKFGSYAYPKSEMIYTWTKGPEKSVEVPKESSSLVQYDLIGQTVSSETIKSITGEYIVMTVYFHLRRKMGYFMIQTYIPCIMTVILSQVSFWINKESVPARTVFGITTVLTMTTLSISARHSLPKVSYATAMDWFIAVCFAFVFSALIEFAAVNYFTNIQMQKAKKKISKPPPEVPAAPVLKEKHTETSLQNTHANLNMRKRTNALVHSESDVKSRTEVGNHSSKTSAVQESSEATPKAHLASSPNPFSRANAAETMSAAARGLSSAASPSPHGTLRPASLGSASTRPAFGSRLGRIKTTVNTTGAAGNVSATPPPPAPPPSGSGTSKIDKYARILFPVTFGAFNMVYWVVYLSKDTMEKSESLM
Sequence of α4β2δ GABAAR (P63138 26-474): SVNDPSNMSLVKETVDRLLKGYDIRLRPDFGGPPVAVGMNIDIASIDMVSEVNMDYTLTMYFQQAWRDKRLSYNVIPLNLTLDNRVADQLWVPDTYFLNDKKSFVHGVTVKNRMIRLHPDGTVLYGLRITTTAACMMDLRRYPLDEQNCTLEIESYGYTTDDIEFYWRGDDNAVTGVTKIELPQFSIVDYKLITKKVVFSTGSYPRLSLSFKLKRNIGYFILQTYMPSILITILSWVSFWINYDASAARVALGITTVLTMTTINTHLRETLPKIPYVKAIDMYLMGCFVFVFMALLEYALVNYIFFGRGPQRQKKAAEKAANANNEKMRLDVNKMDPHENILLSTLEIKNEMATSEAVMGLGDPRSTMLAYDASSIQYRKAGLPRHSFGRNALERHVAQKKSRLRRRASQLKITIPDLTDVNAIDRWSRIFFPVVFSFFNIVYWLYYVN
Sequence of α4β2δ GABAAR (O14764 25-452 partner): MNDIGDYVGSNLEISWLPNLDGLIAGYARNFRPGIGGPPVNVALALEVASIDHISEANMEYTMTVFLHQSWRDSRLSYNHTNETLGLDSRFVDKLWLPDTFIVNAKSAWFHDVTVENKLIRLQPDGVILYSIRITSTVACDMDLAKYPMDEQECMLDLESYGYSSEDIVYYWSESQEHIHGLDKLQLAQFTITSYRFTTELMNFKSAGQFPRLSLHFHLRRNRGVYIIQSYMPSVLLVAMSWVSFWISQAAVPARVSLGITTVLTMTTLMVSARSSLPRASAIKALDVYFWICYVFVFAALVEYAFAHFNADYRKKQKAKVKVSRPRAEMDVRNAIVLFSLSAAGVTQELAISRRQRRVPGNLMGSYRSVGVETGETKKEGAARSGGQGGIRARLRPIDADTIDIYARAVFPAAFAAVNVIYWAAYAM

In the case of Oc1noc2c1CCNC2 [THIP, 4,5,6,7-tetrahydroisoxazolo[5,4-c]pyridin-3(2H)-one], the Kd is reported as 683 µM.
